The subject of this assay is T-cells. Kind of assay: Tolerance induction experiment: T-cell fraction preincubated, combined with APCs and re-stimulated. As to conditions: for mean cpm / cpm / SI: individual KF1; for cpm: individual experiments; for proliferation of T-cells when re-stimulated with cow's milk protein after preincubation with the substance: re-stimulated with whey protein concentrate VTP14 or rαS1-casein, in words. The class given is cell-based, human. On the procedure: For the tolerance induction experiment, PBMCs from healthy donors were isolated by Ficoll-density gradient, and the cells were further separated into two fractions. T-cells were enriched with a human Pan-T-cell isolation Kit (Miltenyi, Bergisch Gladbach, Germany), whereas antigen-presenting cells were enriched with human CD3 MicroBeads (Miltenyi, Bergisch Gladbach, Germany) by magnetic cell sorting.
The cell fractions containing the T-cells were incubated overnight with different peptides or medium alone at 37° C. with 5% CO2 and 95% humidity, the antigen-presenting-cell fractions were kept overnight at the same conditions without any antigens. On the next day, the T-cell fractions were washed with DPBS (GIBCO) three times and the T-cell and antigen-presenting-cell fractions were combined. The cells (2×10^5 cells per well) were cultured in triplicates in 96-well plates as described above. […] The analysis was done as described for the lymphoproliferative assays.
T-cell fractions were preincubated over night with high amounts of Nutramigen™ base (VTP11), extensive casein hydrolysate (VTP15), whole cow's milk whey protein (VTP14), Nutramigen™ (VTP3), synthetic peptides ([…], Phl p 5-Pep 1) or buffer (UCO). On the next day the T-cells and the APCs were combined and stimulated with milk samples (VTP14, VTP1). T cell stimulation is given either in counts per minute (cpm) or as stimulation index (SI).

[1] abbreviates: T-cells tolerized with the substance, stimulated with UCO.
[2] abbreviates: tolerized with the substance, stimulated with IL-2.
[3] abbreviates: tolerized with the substance, stimulated with VTP1, first line.
The mark [4] stands for this setting: tolerized with the substance, stimulated with VTP1, second line.
The mark [5] stands for this setting: tolerized with the substance, stimulated with VTP14, first line.
Setting [6] is: tolerized with the substance, stimulated with VTP14, second line.

“And” between values parts separate entries of the source, which are not always exact repeats. Identical values can stand only once.

As for “CGAASNKAFAEGLSGEPKGAAESSSKAALTSK (Phleum pratense) [Phl P5-peptide 1, control peptide, grass pollen allergen]”, the mean cpm under setting [1] came to 12522 cpm; the mean cpm under setting [2] turned out to be 14724 cpm; the mean cpm under setting [3] was determined as 4295 cpm; the mean cpm under setting [4] worked out at 6355 cpm; the mean cpm under setting [5] is reported as 41970 cpm; the mean cpm under setting [6] was 2336 cpm. In addition, the cpm is 11263 cpm and 13457 cpm and 12846 cpm (T-cells tolerized with the substance, stimulated with UCO, listed as Ph1 p 5-Pep 1); 14153 cpm and 17806 cpm and 12214 cpm (tolerized with the substance, stimulated with IL-2, listed as Ph1 p 5-Pep 1); 4708 cpm and 3278 cpm and 4898 cpm (tolerized with the substance, stimulated with VTP1, first line, listed as Ph1 p 5-Pep 1); 6315 cpm and 6342 cpm and 6409 cpm (tolerized with the substance, stimulated with VTP1, second line, listed as Ph1 p 5-Pep 1); 38430 cpm and 45751 cpm and 41730 cpm (tolerized with the substance, stimulated with VTP14, first line, listed as Ph1 p 5-Pep 1); 3282 cpm and 2244 cpm and 1482 cpm (tolerized with the substance, stimulated with VTP14, second line, listed as Ph1 p 5-Pep 1). Further, the SI by setting is: under setting [2], 1.2; under setting [3], 0.3; under setting [4], 0.5; under setting [5], 3.4; under setting [6], 0.2.
For “CLKKYKVPQLEIVPNSAEERLHSMKEGIHAQQKE (listed as Bos taurus) [Cas4]”, the “proliferation of T-cells when re-stimulated with cow's milk protein after preincubation with the substance” value (“proliferation of T-cells” for short) is recorded as “suppress the proliferation of T-cells”. Also, the mean cpm under setting [1] amounted to 16151 cpm. The cpm (T-cells tolerized with the substance, stimulated with UCO, listed as αS2-PEP 4) is 17694 cpm and 14608 cpm. In addition, under setting [2], the SI was 0.9 and the mean cpm is 14533 cpm. Also, where the note is “tolerized with the substance, stimulated with IL-2, listed as αS2-PEP 4”, the cpm was 12704 cpm and 19463 cpm and 11433 cpm. Under setting [3], the SI is recorded as 0.4 and the mean cpm is 6304 cpm. The cpm (tolerized with the substance, stimulated with VTP1, first line, listed as αS2-PEP 4) was 6381 cpm and 6304 cpm and 6226 cpm. Under setting [4], the SI came out at 0.4 and the mean cpm worked out at 6621 cpm. Besides, the cpm (tolerized with the substance, stimulated with VTP1, second line, listed as αS2-PEP 4) was 8231 cpm and 8478 cpm and 3154 cpm. For the same sequence, under setting [5], the SI was 1.3 and the mean cpm is 20794 cpm. Further, the cpm (tolerized with the substance, stimulated with VTP14, first line, listed as αS2-PEP 4) was 16162 cpm and 25246 cpm. Further, under setting [6], the SI is 0.2 and the mean cpm turned out to be 3747 cpm. Besides, the cpm (tolerized with the substance, stimulated with VTP14, second line, listed as αS2-PEP 4) was 2790 cpm and 4703 cpm.
In the case of “ISSSEEIVPNSVEQKHIQKEDVPSERYLGYEQLLRC (listed as Bos taurus) [Cas3]”, the “proliferation of T-cells” value is on record as “suppress the proliferation of T-cells”. In addition, under “listed as alphaS1-casein-derived peptide 3”, the “proliferation of T-cells” value was “suppressed the proliferation”.

These data come from patent US20110195153A1, “Nutritional Formulation Comprising A Cows Milk Peptide Containing Hydrolysate And Or Peptides Derived Thereof For Tolerance Induction” (MEAD JOHNSON NUTRITION COMPANY, priority 2009, published 2011).
